# Measurements reported in US9187526B2, “Peptide based inhibition of caPCNA interaction in cancer” (priority 2006, dated 2015).
# Where two headings read alike, the source gives them in different places. Where no end group is shown, it is not given here.
# What was measured:
# U937 leukemia cells = assay: Cytotoxicity in U937 leukemia cell cultures, liposome-mediated peptide transfer, flow cytometry with propidium iodide and annexin V; assay type: cell-based
# From the text: Peptide fragments derived from the protein Proliferating Cell Nuclear Antigen (PCNA) are identified herein that have the ability to act, in conjunction with DNA damaging agents (e.g., doxorubicin), to enhance the therapeutic effects of such agents to treat a variety of cancer cells. The peptides are derived from the amino acid sequence within PCNA, for example, encompassing amino acids 126-133. This sequence appears to be uniquely exposed in cancer cells, but not non-cancer cells. By preventing PCNA-binding proteins, including XPG, from binding directly to caPCNA in cancer cells the effects of chemotherapeutic drugs including DNA damaging agents are enhanced. […] Exponentially growing U937 leukemia cell cultures in tissue culture media were used. A liposome mediated protein transfer technique was used wherein the caPCNA peptide (126-133) and doxorubicin were encapsulated in liposomes and added to the cell cultures at 10 μM. […] This approach produced over a 50% killing of the cultured cells within 24 hours that was peptide/drug specific, and not due to liposome mediated cytotoxicity.
# As a positive control, these leukemia cells were also incubated for several hours (either 4 or 24 hours) with a peptide derived from the p21waf protein, and as a negative control, a peptide derived from the yeast myosin protein. […] Cell killing vs. cell damage was assessed by flow cytometry using propidium iodide and annexin V staining.
# breast cancer cells = assay: Flow-cytometric analysis of breast cancer cells treated with peptide-containing liposomes (propidium iodide / annexin V); assay type: cell-based
# Description: Exponentially growing breast cancer cells were grown in culture media to 50% of confluence (FIG. 1). The media was then changed and liposomes that were prepared from transfection reagent (PJR) were incubated with the cells in fresh media for an additional 24 hours prior to performing flow-cytometric analysis of the treated cells.
# Liposomes contained either the carboxyl region of the p21waf1 protein, and/or the caPCNA antigenic site peptide (LGIPEQEY) (SEQ ID NO: 1). After 24 hours, the cells were stained with propidium iodide and fluorescently labeled annexin V antibody. Healthy growing cells were not permeable to the antibody as shown in lower left panel of FIG. 1, while permeabilized healthy cells susceptible to the transfection reagent, but still growing, were stained with propidium iodide. Cells staining with the annexin V antibody indicate some level of damage associated with the induction of apoptotic cells (lower right quadrant, FIG. 1), and/or cells that had died from either apoptosis or necrosis (upper right quadrant, FIG. 1). […] Cells treated with only the transfection reagent slightly affected the condition of the cells and lead to a slight increase in the number of apoptotic and necrotic cells. […] In addition, approximately 5-7% of the remaining cells appeared to be undergoing apoptosis and was slated to die.
# [1] = system: caPCNA binding to caPCNA antibody (caPCNAab); assay: Competition ELISA: caPCNA captured by plate-bound caPCNA antibody (caPCNAab), detected with C20 antibody; set-up: species or system human; settings: increasing amounts of peptide incubated simultaneously with purified caPCNA
# Description: The wells are washed and then incubated with a goat anti-PCNA antibody (C20) that recognizes the C-terminal 20 amino acids of PCNA. Bound C20 antibody is visualized with an alkaline phosphatase conjugated anti-goat IgG antibody, and bound antibody complex is visualized with […], and quantified by spectrophotometry. The competition experiments shown in this study involve the simultaneous incubation of the ca(cs)PCNA with increasing amounts of the antigenic peptide fragment of caPCNA (referred to as B1 or the PCNA aa126-133 peptide) in this assay.
# The assay described in FIG. 5 was used to test the specificity of the antibody combining site for the epitope defined by PCNA aa126-133 (FIG. 6). The ELISA assay was performed as described in aim 1, however, either the B1 peptide or a peptide sequence (H-Ser-Ala-Cys-Glu-Gln-IIe-Leu-Lys-Asp-Thr-OH) (SEQ ID NO: 28) taken from within the yeast myosin protein was used to compete for the antibody in the presence of purified caPCNA.
# The ELISA described herein was used to monitor the ability of two peptides to disrupt caPCNA binding to the bound caPCNA antibody. One peptide (H-[…]OH) (SEQ ID NO: 29) corresponding to the p21cip/waf1 proteins site of interaction with PCNA was evaluated in this assay, and is shown to have no effect on the binding of caPCNA to the bound caPCNA antibody in this ELISA assay (FIG. 7). […] Therefore, the XPG peptide interacts with its recognized PCNA binding site in order to block binding of the PCNA protein to the caPCNA antibody. This happens if the epitope recognized by the antibody was masked by specifically binding this XPG peptide.
# caPCNA = molecular target: T1, caPCNA (Homo sapiens, UniProt P12004); assay: XPG-GST fusion protein immunoprecipitation of PCNA isoforms from MCF7 cell extract, 2D-PAGE Western blot; assay type: binding; settings: 30 μg MCF7 cell extract, 2 h incubation, glutathione agarose beads
# T1 construct: precipitate caPCNA selectively from the MCF7 breast cancer cell extract; endogenous in cells; host or cells: MCF7 cell extract (XPG-GST partner expressed in bacteria)
# T1 sequence (P12004 whole entry, the tested form may be a part, canonical isoform): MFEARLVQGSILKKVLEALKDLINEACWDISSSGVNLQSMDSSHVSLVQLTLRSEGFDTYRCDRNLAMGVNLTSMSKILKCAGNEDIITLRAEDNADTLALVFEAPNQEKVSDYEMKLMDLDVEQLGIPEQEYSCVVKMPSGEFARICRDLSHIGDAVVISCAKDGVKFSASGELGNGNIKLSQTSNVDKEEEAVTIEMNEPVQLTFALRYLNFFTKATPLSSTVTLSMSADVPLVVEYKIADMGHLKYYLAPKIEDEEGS
# From the text: MCF7 cell (human breast adenocarcinoma cell line) extracts were processed for purification of the synthesome. MCF7 derived synthesome was then subjected to chromatography steps on phosphocellulose, phenyl Sepharose, and Q-Sepharose matrices as described in (Malkas, L. and Hickey, R. (1996) The expression, purification and characterization of DNA polymerases involved in papovavirus replication. In: Methods in Enzymol Vol. 275: Viral Polymerases and Related Proteins, Acad. Press (133-167).). The Q-Sepharose eluted fraction containing both the nmPCNA and caPCNA isoforms was then loaded onto a XPG-GST affinity column. The column was eluted and both the column flow-through and eluate were subjected to 2D-PAGE Western blot analysis using PC10 antibody. The PC10 antibody was used at a dilution of 1:1000 in the Western blot analysis.
# caPCNA was specifically immunoprecipitated from a MCF7 cell extract using XPG-GST fusion protein (FIG. 3). Thirty microgram samples of MCF7 cell extract were incubated with XPG-GST fusion protein for two hours, followed by incubation with Glutathione agarose beads for one hour to capture the XPG-GST. The mixture was then centrifuged to collect the beads, and the supernatant and the agarose bead pellet containing the XPG-GST PCNA complex were subjected to 2D-PAGE Western blot analysis. The Western blots were then probed using commercially available PC10 antibody.
# cancer cells = assay: Incubation of RYIRS-tagged caPCNA-derived peptide with cancer cells in vitro (DMSO or liposome uptake); assay type: cell-based; settings: with doxorubicin
# Description: The peptides disclosed herein are synthesized using standard peptide synthesis procedures and equipments or can be obtained commercially (e.g., United Biochemical Research Co., Seattle, Wash.). […] Uptake of this peptide was initiated by incubation of this peptide with the cancer cells in the presence of dimethyl sulfoxide (DMSO) in either phosphate buffered saline (PBS) or culture media containing 0.2-2% DMSO, without serum for about 4-24 hours. Uptake of this peptide was also efficiently mediated by encapsulation of the peptide in a liposome formulation and subsequent incubation with the cancer cells at 37° C. for about 4-24 hours.
compound,measurement,setting,value
"LGIPEQEY [caPCNA peptide (126-133), LGIPEQEY]",intrinsic cytotoxicity,"U937 leukemia cells; U937 cells, peptide as single agent, liposome encapsulated, 10 μM",intrinsic cytotoxicity
same,increase of the cytotoxicity of doxorubicin,"U937 leukemia cells; U937 cells, peptide plus a range of concentrations of doxorubicin",approximately 3 fold
same,cytotoxic response (cell killing),"breast cancer cells; breast cancer cells, peptide alone in liposomes, 24 hours",strong cytotoxic response
H-Gly-Arg-Lys-Arg-Arg-Gln-Thr-Ser-Met-Thr-Asp-Arg-Tyr-His-Ser-Lys-Arg-Arg-Leu-Ile-Phe-Ser-OH (H-GRKRRQTSMTDRYHSKRRLIFS-OH) [p21cip/waf1 peptide (SEQ ID NO: 29)],competition with caPCNA for binding to the caPCNA antibody,[1],no effect
"p21 peptide: peptide derived from the p21waf protein (carboxyl region of p21waf1), positive control (GRKRRQTSMTDRYHSKRRLIFS) [reference compound]",cell kill,"U937 leukemia cells; U937 leukemia cells, absence of doxorubicin, incubation 4 or 24 hours",> 60%
same,cytotoxic response (cell killing),breast cancer cells,induced cell killing
COc1cccc2c1C(=O)c1c(O)c3c(c(O)c1C2=O)C[C@@](O)(C(=O)CO)C[C@@H]3O[C@H]1C[C@H](N)[C@H](O)[C@H](C)O1 [doxorubicin],cell killing,"breast cancer cells; breast cancer cells, low doses of doxorubicin alone",significant level of cell killing
H-Ser-Ala-Cys-Glu-Gln-IIe-Leu-Lys-Asp-Thr-OH (H-SACEQILKDT-OH) [MAL4],competition with caPCNA for binding to the caPCNA antibody,[1],does not compete
"XPG-GST fusion protein: 29 amino acid fragment of the XPG protein coupled to Glutathione-S-transferase, expressed in bacteria (LKQLDAQQTQLRIDSFFRLAQQEKEDAKR; also: fused to glutathione-S-transferase)",selective binding/precipitation of caPCNA versus nmPCNA,caPCNA,recognize and precipitate caPCNA selectively
LGIPEQEYRYIRS [caPCNA-derived peptide (LGIPEQEY)(RYIRS)],augmentation of cytotoxic effects of chemotherapeutic agents,cancer cells,augments the cytotoxic effects
H-Gln-Thr-Gln-Leu-Arg-Ile-Asp-Ser-Phe-Phe-Arg-OH (H-QTQLRIDSFFR-OH) [XPG peptide],competition with caPCNA for binding to the caPCNA antibody,[1],effectively competed
